In the oligonucleotide strings, read from the 5' end, every base follows the letter of its sugar. An asterisk marks phosphorothioate; unmarked linkages are phosphodiester. Other units and linkages are bracketed, terminal groups are in braces. A string of capitals states the bases alone. e = 2'-O-(2-methoxyethyl) (MOE); [5mC] = 5-methylcytosine

The text below walks through data of patent US8178506B2, “Oligomeric compounds and compositions for use in modulation of small non-coding RNAs” (Regulus Therapeutics Inc., priority 2003, dated 2012).

Holding throughout (assay type): cell-based, human
One data set deals with mir-23b miRNA. As to the kind of experiment: pGL3-mir-23b sensor luciferase assay in HeLa cells. Particulars: pGL3-mir-23b sensor-expressing HeLa cells. From the text: In order to assess the ability of miRNAs to bind predicted miRNA binding sites and regulate the expression of the luciferase reporter, in some embodiments, expression systems based on the pGL3-Control (Promega Corp., Madison Wis.) reporter vector and comprising either a mir-15a, mir-21, or a mir-23b miRNA binding site were developed and used in transient transfections of HeLa cells to determine whether the endogenous mir-15a, mir-21, or mir-23b miRNAs, respectively, could repress luciferase reporter gene expression.
The pGL3-mir-23b sensor plasmid was created by cloning the sequence ([…]; SEQ ID NO: 307), representing a sequence complementary to the mir-23b miRNA, into the Xba site of the pGL3-Control plasmid, placing the potential miRNA-binding site in the 3′UTR of the luciferase reporter. This reporter plasmid was used to transfect HeLa cells and it was observed that the endogenous mir-23b miRNA was able to inhibit luciferase expression from the pGL3-mir-23b sensor plasmid. Thus, to further evaluate the ability of the mir-23b miRNA to bind this target site encoded by the pGL3-mir-23b sensor plasmid, and to assess the ability of oligomeric compounds to interfere with mir-23b-mediated silencing, pGL3-mir-23b sensor-expressing HeLa cells were treated with varying concentrations (1.3-, 5- or 20 nM) of the following oligomeric compounds: ISIS Number 327889 (SEQ ID NO: 307), a phosphorothioate uniform 2′-MOE oligomeric compound, and ISIS Number 340925 (SEQ ID NO: 307), a 2′-MOE 5-10-8 gapmer oligomeric compound, both targeting mir-23b. The uniform 2′-MOE phosphorothioate oligomeric compound ISIS Number 327924 (SEQ ID NO: 342) targeting an unrelated miRNA (mir-129-2) was used as a negative control. The data are the average of three trials, and are presented in Table 43 as relative luciferase activity (normalized to pRL-CMV luciferase plasmid only, not treated with oligomeric compound).

For another data set, the system named is PPP2CB protein. Put plainly: Immunoblot of PPP2CB protein in differentiating adipocytes. Particulars: differentiating adipocytes 7- and 10-days post-differentiation, 250 nM. On the procedure:
(§1) When miRNAs have effects on the expression of downstream genes or proteins encoded by these genes, it is advantageous to measure the protein levels of those gene products, and to do this, western blot (immunoblot) analysis is employed. Immunoblot analysis is carried out using standard methods. Briefly, preadipocytes and differentiating adipocytes were cultured as described previously, and differentiating adipocytes are sampled at several timepoints after stimulation of differentiation. Cells were treated with 250 nM oligomeric compounds and harvested 16-20 h after oligomeric compound treatment. Cells were washed, lysed in RIPA buffer with protease inhibitor cocktail (Roche Diagnostics Corporation, Indianapolis, Ind.), suspended in Laemmli buffer (20 ul/well), boiled for 5 minutes and loaded onto either an 8% SDS-PAGE or a 4-20% gradient SDS-PAGE gel. Gels are run for approximately 1.5 hours at 150 V, and transferred to PVDF membrane for western blotting. […] Bands are visualized and quantitated using a PHOSPHORIMAGER™ (Molecular Dynamics, Sunnyvale Calif.) or the ChemiDoc™ system (Bio-Rad Laboratories, Inc., Hercules, Calif.). Thus, the effects of treatment of many cell types (including, but not limited to, preadipocytes, differentiating adipocytes, HeLa, T-24 and A549 cells) with oligomeric compounds of the present invention on the levels of gene expression products can be assessed. […]
A general note: A western blot detects proteins with antibodies after separation by electrophoresis.

Another data set deals with ERK5 protein. Put plainly: Immunoblot of ERK5 protein in differentiating adipocytes. Particulars: differentiating adipocytes 7- and 10-days post-differentiation, 250 nM. As to the method:
as §1

Take “327889 (antisense eG*eT*eG*eG*eT*eA*eA*eT*e[5mC]*e[5mC]*e[5mC]*eT*eG*eG*e[5mC]*eA*eA*eT*eG*eT*eG*eA*eT) [compound 327889]”: the Fold change luciferase with mir-23b miRNA (1.3 nM) turned out to be 3.75; in the data set with mir-23b miRNA (5 nM) it was 3.46; with mir-23b miRNA (20 nM), 7.40.
Turning to “TGAGCTACAGTGCTTCATCTCA [ISIS 327901] (chemistry not given here) [uniform 2′-MOE PS; targets mir-143]”, in the data set on PPP2CB protein, the PPP2CB protein levels result is “higher”. Moreover, the “ERK5 protein levels vs pre-adipocytes or untreated differentiating adipocytes” value with ERK5 protein is 2-2.5 fold.
